In one data set the test system is Hep3B. Briefly: MTS cytotoxicity assay (CellTiter 96 AQueous). The class given is cell-based. Conditions: Homo sapiens, 48 h exposure. As for the experimental part:
(§1) Hep3B and HepG2 cells were grown in mixture of Dulbecco’s Modified Eagle Medium (D-MEM) (high glucose) (Gibco BRL, Carlsbad, CA, USA) and Nutrient Mixture F-12 Ham (Sigma, St. Louis, MO, USA) containing penicillin (50 IU/ml)–streptomycin ([…]) and 10% fetal bovine serum. For cytotoxicity assays, cells were seeded at a density of 10.000 cells per well into 96-well cell culture plates and maintained in a humidified atmosphere of 95% air and 5% CO2 for 12 h, then treated with different concentrations of Ac-2010 or Ac-915. MTS (3-(4,5-dimethylthiazol-2-yl)-5-(3-carboxymethoxy-phenyl)-2-(4-sulfophenyl)-2H-tetrazolium) assay was applied to drug treated and control (0.2% DMSO) cells with CellTiter 96® AQueous Assay (Promega, Madison, WI) according to the manufacturer’s protocol.
(§2) Their cytotoxic effects on human hepatocellular carcinoma cell lines (namely: HepG2, Hep3B and Huh7) were measured by using the MTS assay. […] Both Ac-915 and Ac-2010 induced cell death of liver cancer cells at sub- or low micromolar ranges.

For data set [1], the system named is HepG2. Kind of data set: MTS cytotoxicity assay (CellTiter 96 AQueous). Conditions: Homo sapiens, 48 h exposure. The class given is cell-based. The protocol: as §1, §2
(Tetrazolium assays rely on reduction of a dye to a coloured formazan, in cell work by metabolically active cells.)

Data set [2] relates to Huh7. Briefly: MTS cytotoxicity assay (CellTiter 96 AQueous). The class given is cell-based. Conditions: Homo sapiens, Huh-7, 48 h exposure. The protocol: as §1, §2
Another data set addresses T1, human HSP70 (Homo sapiens, UniProt P0DMV8).
T1 construct: purchased Sino Biological
Briefly: Resonant waveguide optical biosensor binding assay. Conditions: immobilized human recombinant protein, curve fitting. The protocol: (§3) Protein immobilization was accomplished by applying 10 μL of 50 μg/mL human PDI (Sino Biological Inc., Beijing, China) or 50 μg/mL human HSP70 (Sino Biological) or 100 μg/mL human HSP90 (Sino Biological) in 20 mM sodium acetate pH 5.5 into a preactivated 384-well biochemical plate (Perkin Elmer) and incubating overnight at 4°C. The microplates were subsequently washed three times with assay buffer (PBS, pH 7.4/0.005% Tween 20/3% DMSO) and, after 25 minutes thermal equilibration, a baseline reading was taken in the Enspire Multimode Plate Reader (Perkin Elmer). Finally, 15 μL assay buffer was added including different concentrations of Ac-915 or Ac-2010. The Enspire response is measured as a shift in reflected wavelength and is expressed in picometers (pm). The affinity (KD) was calculated using a curve fitting method.
(§4) Direct biomolecular interactions were determined between human recombinant and purified HSP70, HSP90, PDI proteins and Ac-915 and Ac-2010 with resonant waveguide optical biosensor technology in a biochemical binding assay. The technology is based on a microplate with resonant waveguide optical biosensors integrated into each well and a high throughput screening-compatible optical reader (Enspire system, Perkin Elmer). The biochemical interaction between the small molecule and the protein was measured as a shift in reflected wavelength and is expressed in picometers (pm). The binding of both analogs to each of the protein was specific and saturable with the dose response (data not shown).

A further data set concerns the target human HSP90. Kind of data set: Resonant waveguide optical biosensor binding assay. Conditions: immobilized human recombinant protein, curve fitting. As for the experimental part: as §3, §4
In data set [3] the test system is HepG2. Kind of data set: Real-time cytotoxicity, xCELLigence System (RT-CES). The class given is cell-based, human. Conditions: for Cytotoxic effect in real time (cell index): HepG2, impedance monitored for 48 h. The protocol:
(§5) Cytotoxicity and cell migration was monitored with the real-time cell electronic sensing, xCELLigence System (RT-CES, Acea-Roche). Cytotoxicity effects of Ac-2010 and Ac-915 compounds were tested on two different hepatocellular carcinoma cell lines (HepG2 and Hep3B). The RT-CES 96-well E-plate was coated with gelatin and then washed twice with PBS. Growth media (respective to cell types) were then gently dispensed into each well of the 96-well E-plate for background readings by the RT-CES system prior to addition of cell suspension at a density of 6000 cells/well. Devices containing the cell suspension were kept at 37° in a CO2 incubator for 8 h prior to treatment with different concentrations of Ac-2010 and Ac-915. Cell growth was monitored for 48 h by measurements of electrical impedance every 5 min.
(§6) Cytotoxic effects of Ac-915 and Ac-2010 compounds were also tested by the real-time cell electronic sensing, xCELLigence System (RT-CES) on two different hepatocellular carcinoma cell lines (Huh7, HepG2). This technology is based on proprietary microelectronic cell sensor arrays that are integrated in the bottom of the microtiter plates (96-well E-plate). When cells are cultured in a well, impedance is measured between sensor electrodes and the attached cells that act as insulators, which is converted into cell index number.

Data set [4] concerns Huh7. Described as above. The class given is cell-based, human. Conditions: Huh7, impedance monitored for 48 h. As for the experimental part: as §5, §6
The target in data set [5] is T2, PDI (Homo sapiens, UniProt P07237). Kind of data set: Protein disulfide isomerase assay (catalytic reduction of insulin, turbidity at 650 nm). The class given is biochemical. On the set-up: purchased Sino Biological. Conditions: insulin reduction in presence of 1 mM DTT, 25°C. The protocol:
The assay is based on the measurement of the catalytic reduction of insulin as described by Lundstrom and Holmgren. In this assay, PDI facilitates the reduction of insulin in the presence of DTT. The reduced insulin chains aggregate, and the turbidity is monitored spectrophotometrically at 650 nm. The assay was performed in a 96-well plate format and a volume of 30 μl in the presence of 1 mM DTT, 1 μg PDI (Sino Biological), 0.14 mM bovine pancreas insulin (Sigma), and 0.2 mM EDTA in 100 mM potassium phosphate, pH 7.0. The progress of the reaction was monitored on a 96-well plate reader (Model 680 Microplate Reader, Bio-Rad Laboratories) at 650 nm for 95 minutes at 25°C. Ac-915, Ac-2010 or DMSO control was added prior to the addition of enzyme at the concentrations indicated. The nonenzymatic reduction of insulin by DTT was recorded in a control well without PDI. IC50 values of the compounds were calculated using nonlinear regression analysis.
These values are in good correlation with the KD values determined by direct biochemical interaction measurements using waveguide optical biosensors. The activity of PDI was based on the measurement of the catalytic reduction of insulin as described by Lundstrom and Holmgren. In this assay both analogs inhibited the PDI-induced reduction of insulin in the presence of dithiothreitol. […]

The target of data set [6] is T2, PDI. Kind of data set: Resonant waveguide optical biosensor binding assay. Further details: purchased Sino Biological Inc., Beijing, China. Conditions: immobilized human recombinant protein, curve fitting. As for the experimental part:
as §3
Direct biomolecular interactions were determined between human recombinant and purified HSP70, HSP90, PDI proteins and Ac-915 and Ac-2010 with resonant waveguide optical biosensor technology in a biochemical binding assay. The technology is based on a microplate with resonant waveguide optical biosensors integrated into each well and a high throughput screening-compatible optical reader (Enspire system, Perkin Elmer). The biochemical interaction between the small molecule and the protein was measured as a shift in reflected wavelength and is expressed in picometers (pm). […]

Experimental findings from PMC4222488, “Lipid droplet binding thalidomide analogs activate endoplasmic reticulum stress and suppress hepatocellular carcinoma in a chemically induced transgenic mouse model” (Lipids in Health and Disease, 2013) are described below.

T2 sequence (P07237 18-508): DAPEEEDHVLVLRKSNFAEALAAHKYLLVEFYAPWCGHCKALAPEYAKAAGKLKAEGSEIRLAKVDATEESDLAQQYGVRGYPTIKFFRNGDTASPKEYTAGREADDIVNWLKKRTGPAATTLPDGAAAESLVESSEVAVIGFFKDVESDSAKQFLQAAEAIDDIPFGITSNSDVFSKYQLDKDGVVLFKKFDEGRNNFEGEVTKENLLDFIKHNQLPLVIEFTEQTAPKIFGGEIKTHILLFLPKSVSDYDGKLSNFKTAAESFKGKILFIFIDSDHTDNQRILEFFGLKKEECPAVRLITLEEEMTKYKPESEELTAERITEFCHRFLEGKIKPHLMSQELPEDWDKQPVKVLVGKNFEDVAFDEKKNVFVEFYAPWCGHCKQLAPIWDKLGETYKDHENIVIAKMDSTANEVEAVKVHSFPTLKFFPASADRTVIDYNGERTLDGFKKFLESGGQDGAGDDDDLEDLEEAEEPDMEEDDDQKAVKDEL
T1 sequence (P0DMV8 whole entry): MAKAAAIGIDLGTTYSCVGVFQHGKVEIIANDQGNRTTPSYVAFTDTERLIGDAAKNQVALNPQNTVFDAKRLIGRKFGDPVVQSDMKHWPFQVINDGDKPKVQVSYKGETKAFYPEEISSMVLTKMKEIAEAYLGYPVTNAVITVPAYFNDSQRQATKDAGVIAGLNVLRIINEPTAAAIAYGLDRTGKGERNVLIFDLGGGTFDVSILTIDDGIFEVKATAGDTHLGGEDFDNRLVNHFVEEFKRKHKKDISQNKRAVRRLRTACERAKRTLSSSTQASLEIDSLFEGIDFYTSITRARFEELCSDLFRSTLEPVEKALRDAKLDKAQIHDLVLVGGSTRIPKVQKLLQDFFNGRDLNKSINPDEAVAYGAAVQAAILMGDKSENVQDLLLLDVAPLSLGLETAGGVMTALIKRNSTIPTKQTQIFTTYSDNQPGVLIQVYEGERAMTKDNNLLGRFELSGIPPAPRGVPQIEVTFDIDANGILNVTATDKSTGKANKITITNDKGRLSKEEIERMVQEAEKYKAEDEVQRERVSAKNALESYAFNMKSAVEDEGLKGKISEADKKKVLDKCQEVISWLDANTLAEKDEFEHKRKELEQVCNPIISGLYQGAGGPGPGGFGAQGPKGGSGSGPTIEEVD

As a reminder, the EC50 is the concentration that produces a half-maximal response. Higher therefore signals a need for much substance. In general, Kd refers to the concentration at which binding is half-saturated. As a reminder, the IC50 is the midpoint of a concentration-inhibition curve. Take `CC(C)c1cccc(C(C)C)c1N1C(=O)c2c(F)c(F)c(F)c(N[C@@H]3C=CS(=O)(=O)C3)c2C1=O` [Ac-915, 2-[2,6-bis(propane-2-yl)phenyl]-4-{[(3R)-1,1-dioxo-2,3-dihydro-thiophene-3-yl]amino}-5,6,7-trifluoro-2,3-dihydro-1H-isoindole-1,3-dione]: the EC50 amounted to 0.76 µM in the data set with Hep3B, 1.21 µM in the data set on HepG2 [1] and 1.66 µM in the data set on Huh7 [2]. Besides, the values for the Kd on human HSP70, on human HSP90 and at PDI [6] were 14 µM, 11.5 µM and about 10.5 µM, respectively. The “Cytotoxic effect in real time (cell index)” value with HepG2 [3] and in the data set with Huh7 [4] was “micromolar cytotoxic effects” each time. Also, on PDI [5], the IC50 was about 15 µM.
As to `CC(C)c1cccc(C(C)C)c1N1C(=O)c2c(F)c(F)c(F)c(NC(=O)NC(=O)CCl)c2C1=O` [Ac-2010], the results for the EC50 in the data set with Hep3B, with HepG2 [1] and with Huh7 [2] were 0.54 µM, 1.05 µM and 0.94 µM, respectively. Moreover, the values for the Kd at human HSP70, on human HSP90 and on PDI [6] were about 16 µM, about 16 µM and about 6 µM, respectively. Also, in the data set on HepG2 [3] (250 nM, HepG2 cells), the “Cytotoxicity at the migration-inhibiting concentration” value was “no cytotoxicity could be detected”. Further, the “Cytotoxic effect in real time (cell index)” value with HepG2 [3] and in the data set on Huh7 [4] was “micromolar cytotoxic effects” in each case. In addition, on PDI [5], the IC50 was about 9 µM.
